Results: patent US6809085B1, “Adherent N,O-Carboxymethylchitosan drug delivery devices for moist tissue and methods of their use” (Chitogenics, Inc., priority 1999, dated 2004)
Where a name gives a salt, the structure may show the parent alone. Read-outs that look alike come from different tables or passages of the source.

Type: in vitro ADME, rabbit
Description: Previously harvested pieces of rabbit large bowel (surface area 1.767 cm^2) were mounted in an Improved Franz Diffusion Cell containing 0.9% saline (13ml) as the receptor medium. The vaginal cream of Example 3 (1.0 g) was applied directly to the rabbit tissue; the experiments were performed in triplicate.
Aliquots of 1.0 ml (which were replaced with fresh saline solution) were withdrawn from the receptor chamber at 1, 3, 6, 20, 24, 48 hours. LN in samples was quantified using high performance liquid chromatography (Hewlett Packard, model 1090,series II, fitted with Hypersil C18, 5 μm, 25 cm×4.6 mm column, a UV detector set at 241 nm and an acetonitrile(80%)-water(20%) mobile phase).
Accurately weighed portions of the LN-vaginal cream as well as the cream recovered from the diffusion cells were extracted with 20 ml methanol for 16 hr on a wrist-action shaker and analyzed. […] The replicate results along with an average are plotted.
The permeation studies were conducted as described in Example 12 except that the HPLC analysis was modified; a Spectra Physics, Model SP8800, fitted with Alltima phenyl, 5 micron, 15 cm×4.6 mm column, and a UV detector set at 223 nm was used with an acetonitrile (40%)-0.1% phosphoric acid mobile phase. […]

In the case of `CC(=O)O.CC(=O)O.NC(=N\CCCCCC/N=C(N)/N=C(\N)Nc1ccc(Cl)cc1)/N=C(\N)Nc1ccc(Cl)cc1` [chlorhexidine diacetate], the “average permeation rate through the mucosal tissue” value is reported as 160.8 μg/cm^2/hr.
In the case of `CN(C)CCC(c1ccc(Cl)cc1)c1ccccn1` (stereo not shown) [chlorpheniramine maleate], the “average permeation rate through the mucosal tissue” value (rabbit, 48 h, 5 mg per pellet) is reported as 97.3 μg/cm^2/hr and the “average permeation rate through the mucosal tissue” value (rabbit, 48 h, 10 mg per pellet) is reported as 182 μg/cm^2/hr.
With `C#C[C@]1(O)CC[C@H]2[C@@H]3CCC4=CC(=O)CC[C@@H]4[C@H]3CC[C@@]21CC` [levonorgestrel] the “concentration of LN in the cream recovered following the permeation study” value was 3.101 ± 0.315 mg/g, the “amount of levonorgestrel released through normal tissue” value (rabbit, 48 h, 3 mg/g) was “less than 0.5%” and the “permeation rate of hormone that diffused through the tissue from the cream” value (rabbit, 48 h, 3 mg/g) was 0.163±0.010 μg/cm^2/hr.
For `CC(C)(C)NC[C@H](O)COc1nsnc1N1CCOCC1` [timolol maleate], the “average permeation rate through the mucosal tissue” value (rabbit, 24 h) was 103.8 μg/cm^2/hr.
